Results from publication PMC7155171, “Probing the Open Global Health Chemical Diversity Library for Multistage-Active Starting Points for Next-Generation Antimalarials” (ACS Infectious Diseases, 2020).
Where two headings read alike, the source gives them in different places.

Columns and labels:
[1] = system: P. falciparum Dd2 (PfLuc) line expressing firefly luciferase, asexual blood stage; assay: microbe, parasite or virus in culture; type: cell-based, Plasmodium falciparum; details: Plasmodium falciparum
[2] = system: P. falciparum Dd2; assay: SYBR green I asexual blood stage proliferation assay (96 h); type: cell-based, Plasmodium falciparum; details: for IC50 / Emax: Plasmodium falciparum
[3] = DD2, read-out: CDD P. falciparum Luciferase ABS 11-pt Reconfirmation Dose Response (48hr): IC50 (μM), 11-pt dose response, 48hr
[4] = DD2, 8-pt dose response, 96hr, read-out: CDD P. falciparum Luciferase ABS 8-pt Reconfirmation Dose Response (96hr): IC50
[5] = DD2, 8-pt dose response, 96hr, read-out: CDD P. falciparum Luciferase ABS 8-pt Reconfirmation Dose Response (96hr): Maximum inhibition (%)
[6] = DD2, 11-pt dose response, 48hr, read-out: CDD P. falciparum Luciferase ABS 11-pt Reconfirmation Dose Response (48hr): Maximum inhibition (%)
[7] = DD2, 11-pt dose response, 96hr, read-out: CDD P. falciparum Luciferase ABS 11-pt Reconfirmation Dose Response (96hr): IC50
[8] = DD2, 11-pt dose response, 96hr, read-out: CDD P. falciparum Luciferase ABS 11-pt Reconfirmation Dose Response (96hr): Maximum inhibition (%)
[9] = DD2, Sybr Green I, 11-pt dose response, 96hr, read-out: CDD P. falciparum Sybr Green I ABS 11-pt Reconfirmation Dose Response (96hr): IC50
[10] = DD2, Sybr Green I, 11-pt dose response, 96hr, read-out: CDD P. falciparum Sybr Green I ABS 11-pt Reconfirmation Dose Response (96hr): Maximum inhibition (%)
[11] = DD2, read-out: P. falciparum Luciferase ABS 11-pt Reconfirmation Dose Response (48hr): IC50, 11-pt dose response, 48hr
[12] = DD2, 8-pt dose response, 96hr, read-out: P. falciparum Luciferase ABS 8-pt Reconfirmation Dose Response (96hr): IC50
[13] = DD2, 11-pt dose response, 96hr, read-out: P. falciparum Luciferase ABS 11-pt Reconfirmation Dose Response (96hr): IC50
[14] = DD2, 11-pt dose response, 96hr, read-out: P. falciparum Luciferase ABS 11-pt Reconfirmation Dose Response (96hr): Maximum inhibition (%)
[15] = DD2, 11-pt dose response, 96hr, read-out: P. falciparum Sybr Green I ABS 11-pt Reconfirmation Dose Response (96hr): IC50
[16] = DD2, 11-pt dose response, 96hr, read-out: P. falciparum Sybr Green I ABS 11-pt Reconfirmation Dose Response (96hr): Maximum inhibition (%)
[17] = DD2, 8-pt dose response, 96hr, read-out: P. falciparum Luciferase ABS 8-pt Reconfirmation Dose Response (96hr): Maximum inhibition (%)
[18] = DD2, 11-pt dose response, 48hr, read-out: P. falciparum Luciferase ABS 11-pt Reconfirmation Dose Response (48hr): Maximum inhibition (%)

Structure (SMILES)	IC50 [1, 3]	IC50 [1, 4]	Emax [1, 5]	Emax [1, 6]	IC50 [1, 7]	Emax [1, 8]	IC50 [2, 9]	Emax [2, 10]	other results
Clc1ccccc1C1(c2ccnc(C3CCCC3)n2)CCNCC1 [DDD01245610]	4.17 µM	0.49 µM	87.3%	92.8%	0.755 µM	98.9%	3550 nM	76.4%	IC50 ([1]; 96 h incubation, Dd2 luciferase, read-out: 96 hour Pfluc IC50): 0.76 µM
NCC1Cc2cc(-c3nccc(N4CCC(O)CC4)n3)cc(Cl)c2O1 (centres unmarked) [DDD01245918]	2.64 µM	0.55 µM	92%	75.2%	1.96 µM	96.7%	4210 nM	83.9%	
CCCOc1ccc2ccccc2c1CN1CC[C@@]2(O)CCNC[C@H]2C1 [DDD01246029]	2.85 µM	1 µM		96.3%	1.42 µM	98.8%	2760 nM	96.5%	
Clc1ccccc1C1(c2ccnc(C3CC3)n2)CCNCC1 [DDD01246037]	7.25 µM	0.61 µM	89.2%		1.02 µM	93.1%	4410 nM	78%	
c1ccc(-c2nc3c(c(NCc4n[nH]c5c4CCC5)n2)CCNC3)cc1 [DDD01246472]	4.12 µM	0.92 µM	92.6%	97.5%	0.635 µM	99.5%	2890 nM	98.2%	
CCN1CC(c2ccccc2)CC2(CCN(Cc3ncc[nH]3)CC2)C1 (centres unmarked) [DDD01246660]	7.46 µM	0.79 µM	90.9%	59%	3.35 µM	85.5%	3390 nM	89.2%	
Cc1ccc2[nH]c(-c3cn(C4CCNCC4)nn3)nc2c1C [DDD01246711]	2.21 µM	0.43 µM	94.9%	79.2%	2.07 µM	99.2%	4360 nM	79.6%	
Cc1cccc(CN2CCC(Cc3ccccc3F)CC2)n1 [DDD01246731]									IC50 [1, 11]: 2.01 µM; IC50 [1, 12]: 1.12 µM; IC50 [1, 13]: 0.529 µM; Emax [1, 14]: 100%; IC50 [2, 15]: 5160 nM; Emax [2, 16]: 92.8%
CCN1CCN(C[C@@H]2CN(c3ncc(Cl)cc3F)C[C@@H]2CO)CC1 [DDD01246828]	1.58 µM	0.63 µM	94.8%	98.3%	0.961 µM	99.3%	1110 nM	100%	
CN[C@@H](C)C(=O)N(Cc1cccc(C)c1)Cc1ccccc1OC [DDD01246872]	1.7 µM	0.47 µM	85.5%	61.6%	0.75 µM	89.6%	1070 nM	62.7%	
CN(Cc1ccccc1-n1cccn1)C[C@@H]1CCCN2CCCC[C@H]12 [DDD01246904]									IC50 [1, 11]: > 12.5 µM; IC50 [1, 12]: 1.88 µM; Emax [1, 17]: 85.8%; Emax [1, 18]: 53.8%; IC50 [1, 13]: 3.73 µM; Emax [1, 14]: 73.6%; IC50 [2, 15]: 8420 nM; Emax [2, 16]: 72.9%
Cc1cc(-n2cccn2)ccc1CN1CCOCC(CN(C)C)C1 (centres unmarked) [DDD01247138]	> 12.5 µM	0.9 µM	83%	48%	5.64 µM	81.9%	> 4160 nM	60.8%	
CC(C)CN1CCCC1c1ccc(C(=O)Nc2cccnc2)s1 (centres unmarked) [DDD01247321]	4.09 µM	0.77 µM	91.9%	94.3%	2.12 µM	99.9%	4770 nM	91.6%	
CCN(CC)CCN(C)c1nc(-c2ccc(Cl)cc2)nc2c1CNC2 [DDD01247796]									IC50 [1, 11]: 3.45 µM; IC50 [1, 12]: 1.5 µM; Emax [1, 17]: 94.9%; Emax [1, 18]: 74.2%; IC50 [1, 13]: 2.79 µM; Emax [1, 14]: 99.3%; IC50 [2, 15]: 4270 nM; Emax [2, 16]: 89.9%
COc1cccc(CN(C)Cc2[nH]c3ccccc3c2C)c1O [DDD01247848]	1.95 µM	0.44 µM	94.4%	95.9%	0.908 µM	98.6%	1050 nM	98%	
Cc1cccnc1[C@H](C)Nc1nc(-c2cccnc2)nc2c1CNC2 [DDD01248607]									IC50 [1, 11]: 1.59 µM; IC50 [1, 12]: 1.6 µM; Emax [1, 17]: 92.2%; Emax [1, 18]: 79.2%; IC50 [1, 13]: 1.37 µM; Emax [1, 14]: 99.4%; IC50 [2, 15]: 3910 nM; Emax [2, 16]: 91.2%
NC1(C(=O)NCC2CCCN(Cc3ccccc3F)C2)CCCC1 (centres unmarked) [DDD01249015]	> 12.5 µM	0.62 µM	89.1%	55.5%	1.47 µM	87.8%	> 4160 nM	77.3%	
c1ccc(Oc2nccc3occc23)c(CN2CCCCC2)c1 [DDD01249169]	> 12.5 µM	0.69 µM	87.1%	34.1%	1.52 µM	78.9%	7190 nM	73.8%	
CC(C)[C@@H]1CN(C(=O)C2(c3ccccc3)CCN(C)CC2)C[C@H]1N(C)C [DDD01249452]	6.23 µM	0.83 µM	90.5%		2.18 µM	95.6%	3270 nM	87.8%	
CCc1ccc(CN(CCN(C)C)Cc2ccc(C)s2)nc1 [DDD01249772]									IC50 [1, 11]: 1.02 µM; IC50 [1, 12]: 1.2 µM; Emax [1, 17]: 90.5%; Emax [1, 18]: 95.2%; IC50 [1, 13]: 0.278 µM; Emax [1, 14]: 101%; IC50 [2, 15]: 3000 nM; Emax [2, 16]: 93.4%
CC(C)c1nccc(C2(c3ccccc3Cl)CCNCC2)n1 [DDD01250092]	3.82 µM	1.08 µM	86.6%	58.4%	1.95 µM	90.3%	5400 nM	74.3%	
Cc1cccc2[nH]c(-c3cn(C4CCNCC4)nn3)nc12 [DDD01250141]	3.07 µM	0.59 µM	94.4%	66.5%	2.16 µM	97.2%	1480 nM	72.3%	
O=C(c1scc2c1OCCO2)N1CCOC(CCc2ccccc2)C1 (centres unmarked) [DDD01250278]	1.39 µM	0.55 µM	93.1%	97.2%	0.767 µM	100%	1470 nM	101%	
CCCn1ccnc1CN1CCCC1c1ccccn1 (centres unmarked) [DDD01250556]	4.66 µM	0.46 µM		53.8%	1.47 µM	94.8%	11900 nM	68.5%	
Cc1cc2nc(-c3cn(C4CCNCC4)nn3)[nH]c2cc1C [DDD01250700]	2.08 µM	0.34 µM	95.8%	61.5%	1.01 µM	98.7%	3230 nM	82%	
CC(C)(C)CNCC1(O)CCCN(Cc2ccccc2F)C1=O (centres unmarked) [DDD01250810]	> 12.5 µM	1.09 µM	82.3%	55.3%	5.69 µM	80.8%	4310 nM	64.2%	
CCCn1nccc1C(=O)N1CCN(C2CCc3ccccc3C2)CC1 (centres unmarked) [DDD01251134, CCCn1nccc1C(=O)N1CCN(CC1)C1CCc2ccccc2C1]									IC50 ([1]; DD2, read-out: CDD P. falciparum Luc 11pt dose response (96hr, n=2): IC50 (μM), 96hr, 11-point, n=2): 0.224 µM; IC50 ([1]; DD2, read-out: CDD P. falciparum Luciferase 11pt dose response (48hr, n=2): IC50 (μM), 48hr, 11-point, n=2): 0.205 µM; Emax ([1]; DD2, 48hr, 11-point, read-out: CDD P. falciparum Luciferase ABS 11-pt Reconfirmation Dose Response (48hr): Maximum inhibition (%)): 95.3%; Emax ([1]; DD2, 96hr, 11-point, read-out: CDD P. falciparum Luciferase ABS 11-pt Reconfirmation Dose Response (96hr): Maximum inhibition (%)): 100%; CDD P. falciparum Sybr Green I ABS Dd2 Dose Response: Maximum measured (%) ([2]; Dd2, 96 h): 56.3%; IC50 ([2]; DD2, 96 h, read-out: CDD P. falciparum Sybr Green I ABS Dd2 Dose Response: IC50): > 12500 nM
